Laboratory results: the supplement of paper PMC10307832

Columns and labels:
Test in all cases: relative viability (nuclei count vs DMSO), 5 days (fraction); higher = more cells survive
ABC-1 = test system: ABC-1
How it was run: (§1)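 For relative viability, nuclei counts in treated wells were divided by those in vehicle wells. Lung cancer cell lines had been pin-tool dosed in 1536-well plates the day after seeding and cultured for 5 days, then fixed and stained in one step (final 0.05% Triton X-100, 1% formaldehyde, 1 ug/ml Hoechst) and imaged at 4×. Doses were one drug alone or a fixed anchor-drug dose plus five library-drug doses (not always all listed) in √10 steps, and values are duplicate-plate medians.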

CAL-12T = test system: CAL-12T
How it was run: as §1

ChaGo-K-1 = test system: ChaGo-K-1
How it was run: as §1

HCC-366 = test system: HCC-366
How it was run: as §1

HCC-78 = test system: HCC-78
How it was run: as §1

LC-2-ad = test system: LC-2-ad
How it was run: as §1

LOU-NH91 = test system: LOU-NH91
How it was run: as §1

LU99A = test system: LU99A
How it was run: as §1

NCI-H1395 = test system: NCI-H1395
How it was run: as §1

NCI-H1651 = test system: NCI-H1651
How it was run: as §1

NCI-H1755 = test system: NCI-H1755
How it was run: as §1

NCI-H1793 = test system: NCI-H1793
How it was run: as §1

NCI-H1944 = test system: NCI-H1944
How it was run: as §1

NCI-H2087 = test system: NCI-H2087
How it was run: as §1

NCI-H2170 = test system: NCI-H2170
How it was run: as §1

NCI-H2228 = test system: NCI-H2228
How it was run: as §1

NCI-H2405 = test system: NCI-H2405
How it was run: as §1

NCI-H3122 = test system: NCI-H3122
How it was run: as §1

NCI-H460 = test system: NCI-H460
How it was run: as §1

PC-3 [JPC-3] = test system: PC-3 [JPC-3]
How it was run: as §1

RERF-LC-KJ = test system: RERF-LC-KJ
How it was run: as §1

UMC-11 = test system: UMC-11
How it was run: as §1

`O=c1cc(N2CCOCC2)oc2c(-c3cccc4c3sc3ccccc34)cccc12` + N=C(N)NC(=N)NCCc1ccccc1 [Phenformin] (partner 250 µM) gave a relative viability (ABC-1; first compound 0.01 µM) of 0.228, a relative viability (ABC-1; first compound 0.03162 µM) of 0.258 and a relative viability (ABC-1; first compound 0.1 µM) of 0.225. The relative viability (ABC-1; first compound 0.3162 µM) was 0.28, the relative viability (ABC-1; first compound 1 µM) was 0.266 and the relative viability (CAL-12T; first compound 0.01 µM) was 0.519. It also gave a relative viability (CAL-12T; first compound 0.03162 µM) of 0.629, a relative viability (CAL-12T; first compound 0.1 µM) of 0.607 and a relative viability (CAL-12T; first compound 0.3162 µM) of 0.575. The relative viability (CAL-12T; first compound 1 µM) was 0.547, the relative viability (ChaGo-K-1; first compound 0.01 µM) was 0.401 and the relative viability (ChaGo-K-1; first compound 0.03162 µM) was 0.579. For the same compound, the relative viability (ChaGo-K-1; first compound 0.1 µM) was 0.386, the relative viability (ChaGo-K-1; first compound 0.3162 µM) was 0.547 and the relative viability (ChaGo-K-1; first compound 1 µM) was 0.468. The relative viability (HCC-366; first compound 0.01 µM) was 0.608, the relative viability (HCC-366; first compound 0.03162 µM) was 0.697 and the relative viability (HCC-366; first compound 0.1 µM) was 0.661. For the same compound, the relative viability (HCC-366; first compound 0.3162 µM) was 0.601, the relative viability (HCC-366; first compound 1 µM) was 0.668 and the relative viability (HCC-78; first compound 0.01 µM) was 0.738. It also gave a relative viability (HCC-78; first compound 0.03162 µM) of 0.652, a relative viability (HCC-78; first compound 0.1 µM) of 0.388 and a relative viability (HCC-78; first compound 0.3162 µM) of 0.622. For the same compound, the relative viability (HCC-78; first compound 1 µM) was 0.627, the relative viability (LC-2-ad; first compound 0.01 µM) was 0.624 and the relative viability (LC-2-ad; first compound 0.03162 µM) was 0.592. The relative viability (LC-2-ad; first compound 0.1 µM) was 0.614, the relative viability (LC-2-ad; first compound 0.3162 µM) was 0.547 and the relative viability (LC-2-ad; first compound 1 µM) was 0.534. For the same compound, the relative viability (LOU-NH91; first compound 0.01 µM) was 0.58, the relative viability (LOU-NH91; first compound 0.03162 µM) was 0.688 and the relative viability (LOU-NH91; first compound 0.1 µM) was 0.689. The relative viability (LOU-NH91; first compound 0.3162 µM) was 0.791, the relative viability (LOU-NH91; first compound 1 µM) was 0.618 and the relative viability (LU99A; first compound 0.01 µM) was 0.558. The relative viability (LU99A; first compound 0.03162 µM) was 0.833, the relative viability (LU99A; first compound 0.1 µM) was 0.925 and the relative viability (LU99A; first compound 0.3162 µM) was 0.833. The relative viability (LU99A; first compound 1 µM) was 0.887, the relative viability (NCI-H1395; first compound 0.01 µM) was 0.435 and the relative viability (NCI-H1395; first compound 0.03162 µM) was 0.45. The relative viability (NCI-H1395; first compound 0.1 µM) was 0.417, the relative viability (NCI-H1395; first compound 0.3162 µM) was 0.461 and the relative viability (NCI-H1395; first compound 1 µM) was 0.447. For the same compound, the relative viability (NCI-H1651; first compound 0.01 µM) was 0.315, the relative viability (NCI-H1651; first compound 0.03162 µM) was 0.366 and the relative viability (NCI-H1651; first compound 0.1 µM) was 0.352. For the same compound, the relative viability (NCI-H1651; first compound 0.3162 µM) was 0.345, the relative viability (NCI-H1651; first compound 1 µM) was 0.333 and the relative viability (NCI-H1755; first compound 0.01 µM) was 0.652. The relative viability (NCI-H1755; first compound 0.03162 µM) was 0.694, the relative viability (NCI-H1755; first compound 0.1 µM) was 0.655 and the relative viability (NCI-H1755; first compound 0.3162 µM) was 0.614. The relative viability (NCI-H1755; first compound 1 µM) was 0.605, the relative viability (NCI-H1793; first compound 0.01 µM) was 0.386 and the relative viability (NCI-H1793; first compound 0.1 µM) was 0.345. The relative viability (NCI-H1793; first compound 0.3162 µM) was 0.375, the relative viability (NCI-H1793; first compound 1 µM) was 0.363 and the relative viability (NCI-H1944; first compound 0.01 µM) was 0.212. For the same compound, the relative viability (NCI-H1944; first compound 0.03162 µM) was 0.208, the relative viability (NCI-H1944; first compound 0.1 µM) was 0.213 and the relative viability (NCI-H1944; first compound 0.3162 µM) was 0.207. For the same compound, the relative viability (NCI-H1944; first compound 1 µM) was 0.237, the relative viability (NCI-H2087; first compound 0.01 µM) was 0.423 and the relative viability (NCI-H2087; first compound 0.03162 µM) was 0.535. For the same compound, the relative viability (NCI-H2087; first compound 0.1 µM) was 0.45, the relative viability (NCI-H2087; first compound 0.3162 µM) was 0.46 and the relative viability (NCI-H2087; first compound 1 µM) was 0.431. For the same compound, the relative viability (NCI-H2170; first compound 0.01 µM) was 0.401, the relative viability (NCI-H2170; first compound 0.03162 µM) was 0.422 and the relative viability (NCI-H2170; first compound 0.1 µM) was 0.462. It also gave a relative viability (NCI-H2170; first compound 0.3162 µM) of 0.384, a relative viability (NCI-H2170; first compound 1 µM) of 0.39 and a relative viability (NCI-H2228; first compound 0.01 µM) of 0.372. The relative viability (NCI-H2228; first compound 0.03162 µM) was 0.391, the relative viability (NCI-H2228; first compound 0.1 µM) was 0.262 and the relative viability (NCI-H2228; first compound 0.3162 µM) was 0.259. The relative viability (NCI-H2228; first compound 1 µM) was 0.37, the relative viability (NCI-H2405; first compound 0.01 µM) was 0.364 and the relative viability (NCI-H2405; first compound 0.03162 µM) was 0.38. For the same compound, the relative viability (NCI-H2405; first compound 0.1 µM) was 0.356, the relative viability (NCI-H2405; first compound 0.3162 µM) was 0.424 and the relative viability (NCI-H2405; first compound 1 µM) was 0.404. It also gave a relative viability (NCI-H3122; first compound 0.01 µM) of 0.347, a relative viability (NCI-H3122; first compound 0.03162 µM) of 0.374 and a relative viability (NCI-H3122; first compound 0.1 µM) of 0.38. The relative viability (NCI-H3122; first compound 0.3162 µM) was 0.36, the relative viability (NCI-H3122; first compound 1 µM) was 0.396 and the relative viability (NCI-H460; first compound 0.01 µM) was 0.285. For the same compound, the relative viability (NCI-H460; first compound 0.03162 µM) was 0.522, the relative viability (NCI-H460; first compound 0.1 µM) was 0.558 and the relative viability (NCI-H460; first compound 0.3162 µM) was 0.505. For the same compound, the relative viability (NCI-H460; first compound 1 µM) was 0.544, the relative viability (PC-3 [JPC-3]; first compound 0.01 µM) was 0.467 and the relative viability (PC-3 [JPC-3]; first compound 0.03162 µM) was 0.476. The relative viability (PC-3 [JPC-3]; first compound 0.1 µM) was 0.441, the relative viability (PC-3 [JPC-3]; first compound 0.3162 µM) was 0.496 and the relative viability (PC-3 [JPC-3]; first compound 1 µM) was 0.513. It also gave a relative viability (RERF-LC-KJ; first compound 0.01 µM) of 0.429, a relative viability (RERF-LC-KJ; first compound 0.03162 µM) of 0.413 and a relative viability (RERF-LC-KJ; first compound 0.1 µM) of 0.412. It also gave a relative viability (RERF-LC-KJ; first compound 0.3162 µM) of 0.418, a relative viability (RERF-LC-KJ; first compound 1 µM) of 0.427 and a relative viability (UMC-11; first compound 0.01 µM) of 0.352. The relative viability (UMC-11; first compound 0.03162 µM) was 0.316, the relative viability (UMC-11; first compound 0.1 µM) was 0.353 and the relative viability (UMC-11; first compound 0.3162 µM) was 0.36. It also gave a relative viability (UMC-11; first compound 1 µM) of 0.336.
